Data as given in article PMC10590419, “Structural and mechanistic insights into the inhibition of respiratory syncytial virus polymerase by a non-nucleoside inhibitor” (Communications Biology, 2023).

System: RSV minigenome transcription and RNA replication
Experiment: RSV minigenome assay in BSR-T7 cells
Assay type: cell-based, respiratory syncytial virus
Experimental: RSV transcription and RNA replication were analyzed using a replication-deficient minigenome, in which the minigenome template contained a single nucleotide substitution in the trailer region, limiting it to the antigenome step of RNA replication and uncoupling transcription from replication. Minigenome transcription and replication were reconstituted intracellularly. BSR-T7 cells, a T7 RNA polymerase expressing cell line, were cultured in a 6-well dish and transfected with T7-driven plasmids that expressed the minigenome template (200 ng/ well), and the RSV proteins N (400 ng/ well), P (200 ng/ well), L (100 ng/ well) and M2-1 (100 ng/ well). Transfections were performed using Lipofectamine (Thermofisher) according to the manufacturer’s directions. […] Input minigenome RNA, antigenome RNA, and mRNAs were detected by subjecting RNA to electrophoresis in 1.5% agarose-formaldehyde gels in MOPS buffer, followed by Northern blotting using ^32P labeled riboprobes specific to negative sense minigenome (to detect the input RNA) and to positive sense antigenome and mRNAs. The same RNA samples were also analyzed by primer extension using ^32P end-labeled primers corresponding in sequence to nucleotides 15–39 of the leader region (to detect RNA initiated from the +1U and +3 C sites on the promoter). […] Quantification was performed by phosphorimage analysis. […]

Structure (SMILES): COc1cc(C(=O)NC[C@](O)(c2cc(C(C)(C)O)c(F)c(-c3ccc(F)cc3)n2)C(F)(F)F)cc2cc(C)nnc12 [JNJ-8003]
- antigenome RNA and mRNA (in words): dose dependent reduction
